According to patent publication US5032398A, “Selective modification of the catalytic subunit of pertussis toxin” (priority 1986, dated 1991):

What was measured:
pertussis toxin = pertussis toxin (Bordetella pertussis, UniProt P04977); experiment: NADase activity of pertussis toxin after activation and treatment with alkylating reagent (Example One); type: biochemical
Text: The ADP-ribosylating activity of the pertussis toxin can be detected as a nicotinamide-adenine dinucleotide-glycohydrolase (NADase) activity, which can be conveniently assayed through the use of [nicotinamide-^14 C] or [nicotinamide-^3 H] NAD. NAD consists of ADP-ribose linked to nicotinimide, and thus the extent of the release of ADP-ribose from NAD is an indication of the ability of the toxin to cause ill effects. In conducting this assay of the hydrolysis of labelled NAD, ion-exchange column chromatography was employed to resolve the product from the substrate according to the method described by Moss et al., J. Biol. Chem. 258, 11879 (1983) which is incorporated herein by reference. However, several modifications to this method were employed. First, a QAE-Sephadex resin was employed, as was a [nicotinamide-^3 H] NAD. Specifically, a 2 ml QAE-Sephadex column was first washed with 10 ml 1NHCl, followed by 10 ml H2 O, 20 ml 0.5M Tris-HCl pH 7.0, and 40 ml H2 O. [^3 H] NAD was applied, and the column washed with 20 ml water to elute impurities. Purified [^3 H] NAD was eluted with 0.25M NaCl, and stored in small aliquots at -70° C. The purified [^3 H] NAD contributed 50 mM NaCl (final concentration) to the NADase assays.
Before the end of the reaction, 2 ml QAE-Sephadex columns were treated with 10 ml 0.1M imidazole-HCl pH 7.0 with 1.0M NaCl, followed by 40 ml water. The NADase reaction (in 100 μl) was terminated by adding 0.85 ml of ice-cold water, and the entire 0.95 ml was pipetted into a treated QAE column. The labelled nicotinamide was then eluted with 3 ml of water directly into a scintillation vial and counted. The absorbed labelled NAD was then eluted into radioactive waste with 10 ml 0.1M imidazole-HCl pH 7.0 with 1.0M NaCl, and the column stored partially immersed in a water bath until the next assay.
In order to determine if any active toxin remained after the inactivation, a large excess of sulfhydryl reductant was added to each tube to scavenge unreacted sulfhydryl reagent. The NADase activity of the preparation was then measured. The three incubations were performed under a nitrogen atmosphere using degassed solutions to prevent oxidation of sulfhydryl groups which would prevent the sulfhydryl reagent from modifying the sulfhydryl group.
The pertussis toxin in the Examples comprised 50 μg of the toxin in a 500 μl solution of 10 mM sodium phosphate-50 mM sodium chloride-water solution having a pH of 7. The enzymatic activity was detected as the hydrolysis of nicotinamide labelled NAD and ion-exchange column chromatography to resolve the product from the substrate. Unless otherwise noted, the assay was initiated by adding 0.5 to 2.5 μg of the toxin to a reaction mixture for a final volume of 100 μl. The NADase reaction was terminated by adding 0.85 ml of ice-cold water. The entire 0.95 ml was then pipetted into a QAE-Sephadex column (chloride form) and the labelled nicotinamide eluted with 3 ml of water directly into a scintillation vial and counted. […] One unit of NADase activity is defined as 1 pmol NAD hydrolyzed per hour.
One-half microgram of pertussis toxin was incubated for thirty minutes at […] in 100 mM Tris-HCl (pH 8.0), with or without activators, in a volume of 50 μl. When present, ATP and pyrophosphate were present in a concentration of 2 mM, CHAPS at 2 weight percent, and DTT in a concentration of either 2 mM (trial 1) or 1 mM (trial 2). 10 μl of water with or without iodoacetate or N-ethylmaleimide was then added and a second incubation conducted at 30° C. for either thirty minutes (trial 1) or fifteen minutes (trial 2). After this incubation, 10 μl of 200 mM DTT was added to each tube, and the tubes were incubated for thirty (trial 1) or sixty minutes (trial 2) on ice to scavenge the iodoacetate or N-ethylmaleimide.

[1] = system: S1 -S5 subunits of the toxin; experiment: Labelled iodoacetate incorporation into toxin subunits, electrophoresis and x-ray film (Examples Two and Six); parameters: species or system Bordetella pertussis
S1 -S5 subunits of the toxin, sequence (P04977 35-269 limits assumed): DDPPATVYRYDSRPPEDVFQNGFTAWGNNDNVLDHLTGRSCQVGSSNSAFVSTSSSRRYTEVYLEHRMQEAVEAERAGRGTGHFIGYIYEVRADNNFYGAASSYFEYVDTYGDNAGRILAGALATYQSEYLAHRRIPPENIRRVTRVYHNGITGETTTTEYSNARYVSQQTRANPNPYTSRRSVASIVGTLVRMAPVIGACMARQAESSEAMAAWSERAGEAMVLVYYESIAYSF
S1 -S5 subunits of the toxin, sequence (P04978 28-226 limits assumed, further chain): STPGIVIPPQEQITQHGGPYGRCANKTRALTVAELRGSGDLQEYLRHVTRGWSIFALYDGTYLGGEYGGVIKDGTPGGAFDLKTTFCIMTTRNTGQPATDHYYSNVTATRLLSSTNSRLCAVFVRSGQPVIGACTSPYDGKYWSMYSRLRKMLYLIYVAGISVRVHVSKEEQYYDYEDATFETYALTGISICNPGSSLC
S1 -S5 subunits of the toxin, sequence (P04979 29-227 limits assumed, further chain): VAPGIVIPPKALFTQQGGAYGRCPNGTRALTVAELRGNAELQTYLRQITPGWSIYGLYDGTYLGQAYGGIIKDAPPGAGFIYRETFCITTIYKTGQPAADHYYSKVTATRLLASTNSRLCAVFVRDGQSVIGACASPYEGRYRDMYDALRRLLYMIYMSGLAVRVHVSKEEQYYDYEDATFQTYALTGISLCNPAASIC
S1 -S5 subunits of the toxin, sequence (P0A3R5 43-152 limits assumed, further chain): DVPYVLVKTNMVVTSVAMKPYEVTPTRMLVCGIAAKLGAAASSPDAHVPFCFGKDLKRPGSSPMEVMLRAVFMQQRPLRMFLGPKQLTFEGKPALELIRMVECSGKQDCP
S1 -S5 subunits of the toxin, sequence (P04981 35-133 limits assumed, further chain): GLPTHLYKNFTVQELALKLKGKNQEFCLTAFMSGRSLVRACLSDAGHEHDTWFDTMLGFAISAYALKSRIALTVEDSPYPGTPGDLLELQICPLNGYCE
Procedure: Pertussis toxin (2.5 μg) was incubated for thirty minutes at 37° C. in 50 μl of 50 mM Tris-HCl (pH 8.0) with or without combinations of the activators ATP, CHAPS and DTT. During this incubation, ATP was 1 mM, CHAPS was 1 weight percent, and DTT was 0.5 mM, when present. Following this incubation, 75 nmol (1.34 microCi of iodo[^14 C]acetate and 25 μl of water were then added, and the tubes incubated for an additional thirty minutes under nitrogen gas at 30° C. in the dark. This labelling reaction was terminated by adding 1 ml of ice-cold water containing 7.5 mM non-radioactive iodoacetate, 2.5 μg bovine serum albumin, and 150 μg sodium deoxycholate. After ten minutes on ice, 100 μl 72% triochloroacetic acid was added, and the precipitate recovered by centrifugation. Sodium dodecylsulfate and beta-mercaptoethanol were added, the sample heated to 95° C. for one minute, and then electrophoresed using 15% polyacrylamide gels. The fixed gels were then treated, dried and used to expose x-ray film at -70° C.
Pertussis toxin was incubated first at 37° C. for fifteen minutes in […] buffer A (100 mM Tris-HCl, pH 8.0 with 1 mM NaEDTA). EDTA was added to chelate divalent cations, which may promote oxidation of free --SH groups. During this incubation, DTT and ATP were present in concentrations of 1 mM each, and CHAPS was present in a concentration of 1 weight percent. Labelled iodoacetate was then added ([…], 12.5 mM), and the tube incubated on ice for twenty hours. The sample was then mixed with sodium dodecylsulfate and β-mercaptoethanol, heated at 95° C. for one minute, and electrophoresed. After electrophoresis, the gel was fixed, treated with Fluorohance (Research Products International), dried and used to expose x-ray film.

pertussis toxin, sequence (P04977 35-269 limits assumed): as the sequence (P04977 35-269 limits assumed) above

In the case of O=C(O)CI [iodoacetate], the “NADase activity (%) of the activity of toxin treated the same way without alkylating agent” value (pertussis toxin; first incubation: DTT 1 mM, CHAPS 2%, ATP 2 mM, Experiment #2, second incubation 15 min at 30° C, 25 μM NAD) is reported as 3%, the “NADase activity (%) of the activity of toxin treated the same way without alkylating agent” value (pertussis toxin; first incubation: DTT 1 mM, CHAPS 2%, pyrophosphate 2 mM, Experiment #2, second incubation 15 min at 30° C, 25 μM NAD) is reported as 31% and the “NADase activity (%) of the activity of toxin treated the same way without alkylating agent” value (pertussis toxin; first incubation: DTT 2 mM, CHAPS 2%, ATP 2 mM, Experiment #1, second incubation 30 min at 30° C, 125 μM NAD) is reported as 4%. For the same compound, the “NADase activity (%) of the activity of toxin treated the same way without alkylating agent” value (pertussis toxin; first incubation: DTT 2 mM, CHAPS 2%, pyrophosphate 2 mM, Experiment #1, second incubation 30 min at 30° C, 125 μM NAD) was 28%, the “NADase activity (%) of the activity of toxin treated the same way without alkylating agent” value (pertussis toxin; first incubation: none, Experiment #1, second incubation 30 min at 30° C, 125 μM NAD) was 62% and the “NADase activity (%) of the activity of toxin treated the same way without alkylating agent” value (pertussis toxin; first incubation: none, Experiment #2, second incubation 15 min at 30° C, 25 μM NAD) was 87%. The “Amount of label incorporated into the S1 subunit” value ([1]; DTT 1 mM, ATP 1 mM, CHAPS 1%, labelled iodoacetate on ice for twenty hours) was “equal to the sum of that incorporated into the S2 and S3 subunits”, the “Carboxymethylation of toxin subunits, in words” value ([1]; after activation of the toxin by DTT, ATP and CHAPS) was “carboxymethylated the enzymatic S1 subunit” and the “Extent of carboxymethylation of the toxin” value ([1]; pH lowered from 8 to 7) was “decreases somewhat”.
